ChEMBL document CHEMBL2034897, “Discovery and optimization of benzenesulfonanilide derivatives as a novel class of 11β-HSD1 inhibitors” (Bioorg Med Chem Lett, 2012)
pIC50: −log10 of the molar value.

Biological target: 11-beta-hydroxysteroid dehydrogenase 1 (Homo sapiens, UniProt P28845)
Test: Inhibition of human 11beta-HSD1 using [3H]cortisone as substrate assessed as production of [3H]-cortisol by scintillation proximity assay

11-beta-hydroxysteroid dehydrogenase 1, sequence (P28845 whole entry): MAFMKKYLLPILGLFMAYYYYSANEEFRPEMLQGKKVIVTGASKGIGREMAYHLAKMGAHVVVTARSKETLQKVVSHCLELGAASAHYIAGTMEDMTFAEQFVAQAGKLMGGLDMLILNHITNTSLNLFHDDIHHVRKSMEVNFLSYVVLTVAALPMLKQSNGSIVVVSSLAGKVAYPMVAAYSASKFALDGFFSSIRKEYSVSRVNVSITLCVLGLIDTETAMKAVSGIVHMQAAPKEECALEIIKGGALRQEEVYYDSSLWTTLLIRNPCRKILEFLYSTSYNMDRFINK

Structure (SMILES)	pIC50
CC(O)(c1ccc(NS(=O)(=O)c2ccccc2)cc1)C(F)(F)F (racemic)	< 6.00
CN(c1ccc(C(C)(O)C(F)(F)F)cc1)S(=O)(=O)c1ccccc1 (racemic)	< 6.00
